Test results from patent publication US20250136581A1, “SUBSTITUTED TRIAZOLE DERIVATIVE, PREPARATION METHOD THEREFOR, PHARMACEUTICAL COMPOSITION THEREOF, AND USE THEREOF” (SHANGHAI SIMR BIOTECHNOLOGY CO., LTD., priority 2021, published 2025).
Where two headings read alike, the source gives them in different places.

Assays:
[1] = molecular target: α5-GABAA receptor (α5, β3, γ2 subunits) (Homo sapiens (Human), UniProt P18507+P31644); test: Whole cell patch clamp, inverse agonist efficacy in HEK293 cells expressing α5-GABAA receptor; assay type: cell-based; settings: HEK293, drug 100 nM, GABA 0.05 μM, −60 mV; read-out: Compound inverse agonist efficacy %
Excerpt: The inventors used electrophysiological methods to determine the inverse agonist efficacy of the drugs to be tested on the α5-GABAA receptor. The detailed methods are as follows:
Different subunits of the GABAA receptor were co-expressed in the HEK293 cell line to construct a fully functional GABAA receptor. The α, β, and γ subunits are essential to form a complete functional GABAA receptor. In this example, the present disclosure had established the following cell model: α5 subunit (see GenBank Accession No.: NM_000810.3 for protein sequences), β3 subunit (see GenBank Accession No.: NM_000814.5 for protein sequences), and γ2 subunit (see GenBank Accession No.: NM_000816.3 for protein sequences) were co-expressed in the HEK293 cell line, followed by screening the monoclonal stably transfected cell line. This cell line expressed a fully functional α5-GABAA receptor.
The monoclonal stably transfected HEK293 cell line expressing α5-GABAA receptor were cultured in 10 cm culture dishes and passaged when the cells grew to 80% to 90% confluent. During passaging, the culture medium was aspirated first, then 3 mL of DPBS phosphate buffer salt (Gibco™) was added to the culture dishes, and the culture dishes were shaken slightly, and DPBS was aspirated. 1 mL of trypsin (TrypLE Express, Gibco™) was added thereto, and the cells were digested at 37° C. for 1-2 minutes. Then 3 mL of complete medium (DMEM+10% FBS (Gibco™)) was added and the cells at the bottom of the culture dishes were dispersed. The cell suspension was transferred to a 15 mL centrifugal tube (Corning) and then centrifuged at 200 g for 3 minutes. The supernatant was discarded, 4 mL of complete medium was added, and the cells were gently blown and resuspended for use. If cell passaging was performed, the cell suspension was diluted at a ratio of 1:5 or 1:10. If cells for electrophysiological detection were prepared, the cell suspension was diluted in a ratio of 1:12, then added into a 24-well dish (Corning™) in which glass slides were placed and pretreated with Poly-D-Lysine, and the experiment was carried out after the cells adhered to the wall. The cells used for electrophysiology was cultured no more than 48 hours.
Drug concentration setting: The final drug concentration used in drug screening was 100 nM, and the GABA concentration was 0.05 μM. The whole cell patch clamp technique was used in electrophysiological assays, which could refer to the literature (I. Lecker, Y. Yin, D. S. Wang and B. A. Orser, British Journal of Anaesthesia, 2013, 110 (Si), i73-i81). The compositions of the extracellular solution for electrophysiology assay were as follows: 150 mM NaCl, 5 mM KCl, 2.5 mM CaCl2, 1 mM MgCl2, 10 mM HEPES, and 10 mM glucose (pH 7.4); the formulation of the electrode internal fluid for electrophysiology use was as follows: 140 mM CsCl, 11 mM EGTA, 10 mM HEPES, 2 mM CaCl2, 1 mM MgCl2, 4 mM MgATP, and 2 mM TEA (pH 7.3). The signal acquisition used an EPC-10 amplifier and the PatchMaster software (HEKA) or Axon700B amplifier and Clampex software (AXON). The recording electrode was pulled from borosilicate glass, and the electrode resistance was 4 to 6 MQ. The ALA-VC-8PG™ system was used for drug application. Single cell that grew independently was selected for recording. During recording, the cell membrane potential was clamped at −60 mV. During experiment, an extracellular solution was applied outside the cells for about 20 seconds. When the baseline reached to a stable state, the extracellular solution was switched to the GABA solution to induce an inward current. After about 20 to 40 seconds until the current was stable, the solution was switched to a corresponding drug solution to detect the effect of the drug. At last, the solution was switched to the extracellular solution, and the experiment was terminated when the baseline returned to the level before drug application. […]

[2] = molecular target: human α5β3γ2 receptors (α5-GABAA receptor) (Homo sapiens (Human), UniProt P18507+P31644); test: 3H-flunitrazepam competition binding, human α5β3γ2 GABAA receptor; settings: HEK293 cell membranes, 1 nM 3H-flunitrazepam
In short: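 Radioligand displacement of 1 nM 3H-flunitrazepam from membranes of HEK293 lines stably expressing the human subtypes, 1 h at room temperature, compound in 8-point 4-fold series. Bound label on GF/C filters counted by scintillation; Ki derived from fitted IC50, with flumazenil as low control.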

| SMILES | inhibition at 0.1 µM [1] [%] | Ki ([2]; read-out: α5-GABAAR Ki) [nM] | Ki ([2]; α5-GABAAR Ki) [nM] |
| --- | --- | --- | --- |
| Cc1nnn(-c2ccc(C(F)F)cc2)c1COc1ccc(N2CCO[C@H](C(=O)O)C2)nn1 [Example 35, (S)-4-(6-((1-(4-(Difluoromethyl)phenyl)-4-methyl-1H-1,2,3-triazol-5-yl)methoxy)pyridazin-3-yl)morpholine-2-carboxylic acid] | 52.8 | 9.03 |  |
| Cc1nnn(-c2ccc(C(F)F)cc2)c1COc1ccc(N2CCN(CCN)C(=O)C2)nn1 [Example 67, 1-(2-Aminoethyl)-4-(6-((1-(4-(difluoromethyl)phenyl)-4-methyl-1H-1,2,3-triazol-5-yl)methoxy)pyridazin-3-yl)piperazin-2-one] | 50.1 |  |  |
| Cc1nnn(-c2ccc(C(F)F)cc2)c1COc1ccc(N2CCN3CCOC[C@@H]3C2)nn1 [Example 13, (S)-8-(6-((1-(4-(Difluoromethyl)phenyl)-4-methyl-1H-1,2,3-triazol-5-yl)methoxy)pyridazin-3-yl)octahydropyrazino[2,1-c][1,4]oxazine] | 43.3 | 2.2 |  |
| Cc1nnn(-c2ccc(C(F)F)cc2)c1COc1ccc(N2CCN(CC3CC3)C(=O)C2)nn1 [Example 97, 1-(Cyclopropylmethyl)-4-(6-((1-(4-(difluoromethyl)phenyl)-4-methyl-1H-1,2,3-triazol-5-yl)methoxy)pyridazin-3-yl)piperazin-2-one] | 49.2 |  | 1.11 |
| Cc1nnc([C@@H]2CN(c3ccc(OCc4c(C)nnn4-c4ccc(C(F)F)cc4)nn3)CCN2)o1 [Example 34, (S)-2-(4-(6-((1-(4-(Difluoromethyl)phenyl)-4-methyl-1H-1,2,3-triazol-5-yl)methoxy)pyridazin-3-yl)piperazin-2-yl)-5-methyl-1,3,4-oxadiazole] | 42.2 | 7.08 |  |
| Cc1nnn(-c2ccc(C(F)F)cc2)c1COc1ccc(N2CCCC2=O)nn1 [Example 20, 1-(6-((1-(4-(Difluoromethyl)phenyl)-4-methyl-1H-1,2,3-triazol-5-yl)methoxy)pyridazin-3-yl)pyrrolidin-2-one] | 51.2 | 1.97 |  |
| Cc1nnn(-c2ccc(C(F)F)cc2)c1COc1ccc(N2CC(C(=O)NC3CC3)C2)nn1 [Example 44, N-Cyclopropyl-1-(6-((1-(4-(difluoromethyl)phenyl)-4-methyl-1H-1,2,3-triazol-5-yl)methoxy)pyridazin-3-yl)azetidine-3-carboxamide] | 49.6 | 2.31 |  |
| Cc1nnn(-c2ccc(C(F)F)cc2)c1COc1ccc(N2CCN(CCN3CCC(F)(F)C3)C(=O)C2)nn1 [Example 110, 4-(6-((1-(4-(Difluoromethyl)phenyl)-4-methyl-1H-1,2,3-triazol-5-yl)methoxy)pyridazin-3-yl)-1-(2-(3,3-difluoropyrrolidin-1-yl)ethyl)piperazin-2-one] | 47.5 | 1.6 |  |
| Cc1nnn(-c2ccc(F)cn2)c1COc1ccc(N2CCNC(=O)C2)nn1 [Example 73, 4-(6-((1-(5-Fluoropyridin-2-yl)-4-methyl-1H-1,2,3-triazol-5-yl)methoxy)pyridazin-3-yl)piperazin-2-one] | 41.3 | 4.93 |  |
| Cc1nnn(-c2ccc(C(F)F)cc2)c1COc1ccc(N2CCN(CC#N)C(=O)C2)nn1 [Example 99, 2-(4-(6-((1-(4-(Difluoromethyl)phenyl)-4-methyl-1H-1,2,3-triazol-5-yl)methoxy)pyridazin-3-yl)-2-oxopiperazin-1-yl)acetonitrile] | 48 | 1.95 |  |
| Cc1nnn(-c2ccc(C(F)F)cc2)c1COc1ccc(N2CC[C@H]3CCNC(=O)[C@@H]3C2)nn1 (relative stereo) [Example 124, trans-7-(6-((1-(4-(Difluoromethyl)phenyl)-4-methyl-1H-1,2,3-triazol-5-yl)methoxy)pyridazin-3-yl)octahydro-2,7-naphthyridin-1(2H)-one] | 48.4 | 2.4 |  |

Now from value to compound, other results behind:

| inhibition at 0.1 µM [1] [%] | Ki ([2]; read-out: α5-GABAAR Ki) [nM] | SMILES | Ki ([2]; α5-GABAAR Ki) [nM] |
| --- | --- | --- | --- |
| 46.6 | 5.26 | Cc1nnn(-c2ccc(C(F)F)cc2)c1COc1ccc(N2CC(C(=O)N3CCCC(O)C3)C2)nn1 (stereo not shown) [Example 154, (1-(6-((1-(4-(Difluoromethyl)phenyl)-4-methyl-1H-1,2,3-triazol-5-yl)methoxy)pyridazin-3-yl)azetidin-3-yl)(3-hydroxypiperidin-1-yl)methanone] |  |
| 56.5 | 4.44 | O=C(O)c1ccc(CCCN2CCN(c3ccc(OCc4c(Cl)nnn4-c4ccc(C(F)F)cc4)nn3)CC2=O)cc1 [Example 146, 4-(3-(4-(6-((4-Chloro-1-(4-(difluoromethyl)phenyl)-1H-1,2,3-triazol-5-yl)methoxy)pyridazin-3-yl)-2-oxopiperazin-1-yl)propyl)benzoic acid] |  |
| 47.2 | 4.27 | COC(C)CN1CCN(c2ccc(OCc3c(C)nnn3-c3ccc(C(F)F)cc3)nn2)CC1=O (stereo not shown) [Example 141, 4-(6-((1-(4-(Difluoromethyl)phenyl)-4-methyl-1H-1,2,3-triazol-5-yl)methoxy)pyridazin-3-yl)-1-(2-methoxypropyl)piperazin-2-one] |  |
| 47.6 | 1.34 | O=C1CN(c2ccc(OCc3c(Cl)nnn3-c3ccc(C(F)F)cc3)nn2)CCN1 [Example 131, 4-(6-((4-Chloro-1-(4-(difluoromethyl)phenyl)-1H-1,2,3-triazol-5-yl)methoxy)pyridazin-3-yl)piperazin-2-one] |  |
| 57 | 17.1 | Cc1nnn(-c2ccc(OC(F)F)cc2)c1COc1ccc(N2CCN3CCNC(=O)[C@@H]3C2)nn1 [Example 130, (S)-8-(6-((1-(4-(Difluoromethoxy)phenyl)-4-methyl-1H-1,2,3-triazol-5-yl)methoxy)pyridazin-3-yl)octahydro-2H-pyrazino[1,2-a]pyrazin-1(6H)-one] |  |
| 60.1 | 1.9 | Cc1nnn(-c2ccc(C(F)F)cc2)c1COc1ccc(N2CCN3CC(C(C)C)NC(=O)[C@@H]3C2)nn1 (stereo partly drawn) [Example 200, (9aS)-8-(6-((1-(4-(Difluoromethyl)phenyl)-4-methyl-1H-1,2,3-triazol-5-yl)methoxy)pyridazin-3-yl)-3-isopropylhexahydro-2H-pyrazino[1,2-a]pyrazin-1(6H)-one] |  |
| 44.2 | 3.53 | Cc1nnn(-c2ccc(C(F)F)cc2)c1COc1ccc(N2CC(C(=O)N3CC4CC3CO4)C2)nn1 (stereo not shown) [Example 157, (2-Oxa-5-azabicyclo[2.2.1]heptan-5-yl)(1-(6-((1-(4-(difluoromethyl)phenyl)-4-methyl-1H-1,2,3-triazol-5-yl)methoxy)pyridazin-3-yl)azetidin-3-yl)methanone] |  |
| 49.9 | 20 | CCNC(=O)C1CN(c2ccc(OCc3c(C)nnn3-c3ccc(C(F)F)cc3)nc2)C1 [Example 159, 1-(6-((1-(4-(Difluoromethyl)phenyl)-4-methyl-1H-1,2,3-triazol-5-yl)methoxy)pyridin-3-yl)-N-ethylazetidine-3-carboxamide] |  |
